US20250179073A1, “TRICYCLIC HETEROCYCLE COMPOUNDS AS IAP ANTAGONISTS” (Ascentage Pharma (Suzhou) Co., Ltd., priority 2022, published 2025)

Key:
MDA-MB-231 cells = assay: Cell proliferation assay (CellTiter-Glo), MDA-MB-231; assay type: cell-based; details: Homo sapiens, MDA-MB-231, 72 h, 72 h treatment, Celltiter-Glo luminescence
Method in brief: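 MDA-MB-231 (RPMI-1640/10% FBS) and EVSA-T (MEM/10% FBS) cells, 10000 cells/well, exposed 72 h to compound at […]. Viability read by CellTiter-Glo luminescence after 15 min at room temperature. IC50 from control-normalised curve fitting.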

EVSA-T cells = assay: Cell proliferation assay (CellTiter-Glo), EVSA-T; assay type: cell-based; details: Homo sapiens, EVSA-T, 72 h, 72 h treatment, Celltiter-Glo luminescence
Procedure: Example 238: Cell Proliferation Assay
MDA-MB-231 and EVSA-T cells (10000 cells/well) were plated onto 96-well plates (Corning, Cat #3917) in 95 μL of medium (RPMI-1640 containing 10% FBS and MEM containing 10% FBS, respectively). Compounds with various concentrations ([…]) were added to the wells. After treatment for 72 h, 30 μL of Celltiter-Glo reagent (Promega, Cat #G7573) was added and incubated at room temperature for 15 min, then the luminescent signal was determined using a microplate reader (Biotek, SynergyH1). The inhibitor dose-response curves were analyzed using normalized IC50 regression curve fitting with control based normalization.

Row | IC50 (MDA-MB-231 cells) [nM] | Structure (SMILES) | IC50 (EVSA-T cells) [nM]
1 | 170 | C[C@@H]1CN(CC(=O)N2CC(C)(C)c3c2cc(Cc2ccc(F)cc2)c2nnc(C(F)(F)F)n32)[C@@H](CN2CCOC[C@H]2C)CN1 [Example 13, 1-(4-(4-fluorobenzyl)-8,8-dimethyl-1-(trifluoromethyl)-7,8-dihydro-6H-pyrrolo[2,3-e][1,2,4]triazolo[4,3-a]pyridin-6-yl)-2-((2R,5R)-5-methyl-2-(((R)-3-methylmorpholino)methyl)piperazin-1-yl)ethan-1-one] | 9
2 | 30 | C[C@@H]1CN(CC(=O)N2CC(C)(C)c3c2cc(Sc2ccc(F)cc2)c2ncnn32)[C@@H](CN2CCOC[C@H]2C)CN1 [Compound 49, 1-(4-((4-fluorophenyl)thio)-8,8-dimethyl-7,8-dihydro-6H-pyrrolo[2,3-e][1,2,4]triazolo[1,5-a]pyridin-6-yl)-2-((2R,5R)-5-methyl-2-(((R)-3-methylmorpholino)methyl)piperazin-1-yl)ethan-1-one] | 5
3 | 23 | C[C@@H]1CN(CC(=O)N2CC(C)(C)c3c2cc(Cc2ccc(F)cc2)c2nn(CC#N)c(=O)n32)[C@@H](CN2CCOC[C@H]2C)CN1 [Compound 185, 2-(4-(4-fluorobenzyl)-8,8-dimethyl-6-(2-((2R,5R)-5-methyl-2-(((R)-3-methylmorpholino)methyl)piperazin-1-yl)acetyl)-1-oxo-7,8-dihydro-1H-pyrrolo[2,3-e][1,2,4]triazolo[4,3-a]pyridin-2(6H)-yl)acetonitrile] | 7
4 | 47 | C[C@@H]1CN(CC(=O)N2CC(C)(C)c3c2cc(Cc2ccc(F)cc2)c2nn([C@H]4CCOC4)c(=O)n32)[C@@H](CN2CCOC[C@H]2C)CN1 [Compound 218, 4-(4-fluorobenzyl)-8,8-dimethyl-6-(2-((2R,5R)-5-methyl-2-(((R)-3-methylmorpholino)methyl)piperazin-1-yl)acetyl)-2-((S)-tetrahydrofuran-3-yl)-2,6,7,8-tetrahydro-1H-pyrrolo[2,3-e][1,2,4]triazolo[4,3-a]pyridin-1-one] | 2
5 | 100 | CC(=O)Nc1nc2c(Cc3ccc(F)cc3)cc3c(n2n1)C(C)(C)CN3C(=O)CN1C[C@@H](C)NC[C@@H]1CN1CCOC[C@H]1C [Example 29, N-(4-(4-fluorobenzyl)-8,8-dimethyl-6-(2-((2R,5R)-5-methyl-2-(((R)-3-methylmorpholino)methyl)piperazin-1-yl)acetyl)-7,8-dihydro-6H-pyrrolo[2,3-e][1,2,4]triazolo[1,5-a]pyridin-2-yl)acetamide] | 10
6 | 4 | C[C@@H]1CN(CC(=O)N2CC(C)(C)c3c2cc(Cc2ccc(F)cc2)c2nc(-c4ccn[nH]4)nn32)[C@@H](CN2CCOC[C@H]2C)CN1 [Compound 247, 1-(4-(4-fluorobenzyl)-8,8-dimethyl-2-(1H-pyrazol-5-yl)-7,8-dihydro-6H-pyrrolo[2,3-e][1,2,4]triazolo[1,5-a]pyridin-6-yl)-2-((2R,5R)-5-methy 1-2-(((R)-3-methylmorpholino)methyl)piperazin-1-yl)ethan-1-one] | 6.2
7 | 38 | C[C@@H]1CN(CC(=O)N2CC(C)(C)c3c2cc(Cc2ccc(F)cc2)c2nc(N4CCN(C)C4=O)nn32)[C@@H](CN2CCOC[C@H]2C)CN1 [Compound 235, 1-(4-(4-fluorobenzyl)-8,8-dimethyl-6-(2-((2R,5R)-5-methyl-2-(((R)-3-methylmorpholino)methyl)piperazin-1-yl)acetyl)-7,8-dihydro-6H-pyrrolo[2,3-e][1,2,4]triazolo[1,5-a]pyridin-2-yl)-3-methylimidazolidin-2-one] | 1.3
8 | 29 | C[C@@H]1CN(CC(=O)N2CC(C)(C)c3c2cc(Cc2ccc(F)cc2)c2nn(CC(C)(C)O)c(=O)n32)[C@@H](CN2CC(F)(F)C[C@H]2C)CN1 [Compound 288, 6-(2-((2R,5R)-2-(((R)-4,4-difluoro-2-methylpyrrolidin-1-yl)methyl)-5-methylpiperazin-1-yl)acetyl)-4-(4-fluorobenzyl)-2-(2-hydroxy-2-methylpropyl)-8,8-dimethyl-2,6,7,8-tetrahydro-1H-pyrrolo[2,3-e][1,2,4]triazolo[4,3-a]pyridin-1-one] | –
9 | 150 | C[C@@H]1CN(CC(=O)N2CC(C)(C)c3c2cc(C(F)(F)C24CC(C(F)(F)F)(C2)C4)c2ncnn32)[C@@H](CN2CCOC[C@H]2C)CN1 [Compound 166, 1-(4-(difluoro(3-(trifluoromethyl)bicyclo[1.1.1]pentan-1-yl)methyl)-8,8-dimethyl-7,8-dihydro-6H-pyrrolo[2,3-e][1,2,4]triazolo[1,5-a]pyridin-6-yl)-2-((2R,5R)-5-methyl-2-(((R)-3-methylmorpholino)methyl)piperazin-1-yl)ethan-1-one] | –
10 | 80 | Cc1nccn1C[C@H]1CN[C@H](C)CN1CC(=O)N1CC(C)(C)c2c1cc(Cc1ccc(F)cc1)c1ncnn21 [Compound 91, 1-(4-(4-fluorobenzyl)-8,8-dimethyl-7,8-dihydro-6H-pyrrolo[2,3-e][1,2,4]triazolo[1,5-a]pyridin-6-yl)-2-((2R,5R)-5-methyl-2-((2-methyl-1H-imidazol-1-yl)methyl)piperazin-1-yl)ethan-1-one] | –
11 | 230 | C[C@@H]1CN(CC(=O)N2CC(C)(C)c3c2cc(Cc2ccc(F)cc2)c2nn(Cc4cccnn4)c(=O)n32)[C@@H](CN2CCOC[C@H]2C)CN1 [Compound 253, 4-(4-fluorobenzyl)-8,8-dimethyl-6-(2-((2R,5R)-5-methyl-2-(((R)-3-methylmorpholino)methyl)piperazin-1-yl)acetyl)-2-(pyridazin-3-ylmethyl)-2,6,7,8-tetrahydro-1H-pyrrolo[2,3-e][1,2,4]triazolo[4,3-a]pyridin-1-one] | –
12 | 7080 | C[C@@H]1CN(CC(=O)N2CC(C)(C)c3c2cc(Cc2ccc(F)cc2)c2ncnn32)[C@@H](CN2CCN(C)C(=O)[C@H]2C)CN1 [Compound 205, (R)-4-(((2R,5R)-1-(2-(4-(4-fluorobenzyl)-8,8-dimethyl-7,8-dihydro-6H-pyrrolo[2,3-e][1,2,4]triazolo[1,5-a]pyridin-6-yl)-2-oxoethyl)-5-methylpiperazin-2-yl)methyl)-1,3-dimethylpiperazin-2-one] | –
13 | 190 | C[C@@H]1CN(CC(=O)N2CC(C)(C)c3c2cc(Cc2ccc(F)cc2)c2nn(Cc4ncccn4)c(=O)n32)[C@@H](CN2CCOC[C@H]2C)CN1 [Compound 221, 4-(4-fluorobenzyl)-8,8-dimethyl-6-(2-((2R,5R)-5-methyl-2-(((R)-3-methylmorpholino)methyl)piperazin-1-yl)acetyl)-2-(pyrimidin-2-ylmethyl)-2,6,7,8-tetrahydro-1H-pyrrolo[2,3-e][1,2,4]triazolo[4,3-a]pyridin-1-one] | –
14 | 59 | C[C@@H]1CN(CC(=O)N2CC(C)(C)c3c2cc(Cc2ccc(F)cc2)c2cnc(C4CC4)n32)[C@@H](CN2CCOC[C@H]2C)CN1 [Compound 3, 1-(1-cyclopropyl-4-(4-fluorobenzyl)-8,8-dimethyl-7,8-dihydro-6H-imidazo[1,5-a]pyrrolo[2,3-e]pyridin-6-yl)-2-((2R,5R)-5-methyl-2-(((R)-3-methylmorpholino)methyl)piperazin-1-yl)ethan-1-one] | –
15 | 280 | C[C@@H]1CN(CC(=O)N2CC(C)(C)c3c2cc(Sc2ccc(F)cc2N)c2ncnn32)[C@@H](CN2CCOC[C@H]2C)CN1 [Compound 216, 1-(4-((2-amino-4-fluorophenyl)thio)-8,8-dimethyl-7,8-dihydro-6H-pyrrolo[2,3-e][1,2,4]triazolo[1,5-a]pyridin-6-yl)-2-((2R,5R)-5-methyl-2-(((R)-3-methylmorpholino)methyl)piperazin-1-yl)ethan-1-one] | –
16 | 41 | C[C@@H]1CN(CC(=O)N2CC(C)(C)c3c2cc(Cc2ccc(F)cc2)c2nn(C4CNC4)c(=O)n32)[C@@H](CN2CCOC[C@H]2C)CN1 [Compound 249, 2-(azetidin-3-yl)-4-(4-fluorobenzyl)-8,8-dimethyl-6-(2-((2R,5R)-5-methyl-2-(((R)-3-methylmorpholino)methyl)piperazin-1-yl)acetyl)-2,6,7,8-tetrahydro-1H-pyrrolo[2,3-e][1,2,4]triazolo[4,3-a]pyridin-1-one] | –

Row | Structure (SMILES) | IC50 (MDA-MB-231 cells) [nM] | IC50 (EVSA-T cells) [nM]
17 | C[C@@H]1CN(CC(=O)N2CC(C)(C)c3c2cc(Cc2ccc(F)cc2)c2nc(N4CC5CC(C4)O5)nn32)[C@@H](CN2CCOC[C@H]2C)CN1 [Compound 189, 1-(2-(6-oxa-3-azabicyclo[3.1.1]heptan-3-yl)-4-(4-fluorobenzyl)-8,8-dimethyl-7,8-dihydro-6H-pyrrolo[2,3-e][1,2,4]triazolo[1,5-a]pyridin-6-yl)-2-((2R,5R)-5-methyl-2-(((R)-3-methylmorpholino)methyl)piperazin-1-yl)ethan-1-one] | 10 | 2
18 | C[C@@H]1CN(CC(=O)N2CC(C)(C)c3c2cc(Cc2ccc(F)cc2)c2nn(CC(C)(C)O)c(=O)n32)[C@@H](CN2C3CCC2COC3)CN1 [Compound 276, 6-(2-((2R,5R)-2-((3-oxa-8-azabicyclo[3.2.1]octan-8-yl)methyl)-5-methylpiperazin-1-yl)acetyl)-4-(4-fluorobenzyl)-2-(2-hydroxy-2-methylpropyl)-8,8-dimethyl-2,6,7,8-tetrahydro-1H-pyrrolo[2,3-e][1,2,4]triazolo[4,3-a]pyridin-1-one] | 390 | –
